Results on 16 compounds are retold here after ChEMBL document CHEMBL1926637, “Stereoselective synthesis and QSAR study of cytotoxic 2-(4-oxo-thiazolidin-2-ylidene)-2-cyano-N-arylacetamides” (Eur J Med Chem, 2012).

Usually IC50 stands for the concentration needed to halve the response being measured.

Holding throughout (assay type): functional, cell-based
The subject of one assay is MCF7. Put plainly: Cytotoxicity against human MCF7 cells after 48 hrs by sulforhodamine B assay. The note with it: MCF7, 48 h.
Another assay concerns HepG2. Put plainly: Cytotoxicity against human HepG2 cells after 48 hrs by sulforhodamine B assay. The settings on record: HepG2, 48 h. On the technique in general: The SRB assay estimates cell density from bound dye.
A further assay concerns HCT-116. Put plainly: Cytotoxicity against human HCT116 cells after 48 hrs by sulforhodamine B assay. The note with it: HCT-116, 48 h.

On to `COc1ccc(/C=c2\s/c(=C(/C#N)C(=O)Nc3ccccc3)n(-c3ccccc3)c2=O)cc1`, for which the figures for the IC50 in the assay on MCF7, in the assay on HepG2 and in the assay on HCT-116 were 7.89 µM, 30.4 µM and 6.61 µM, respectively.
For the compound `COc1ccc(/C=c2\s/c(=C(/C#N)C(=O)Nc3ccc(C)cc3)n(-c3ccccc3)c2=O)cc1`, the IC50 in the assay on MCF7 is above 107 µM; in the assay with HepG2, 37.4 µM; in the assay with HCT-116, 9.95 µM.
For `Cc1ccc(NC(=O)/C(C#N)=c2\s/c(=C\c3ccc(Cl)cc3)c(=O)n2-c2ccccc2)cc1`, the IC50 with MCF7 is 28.6 µM; in the assay with HepG2, 48.3 µM; in the assay with HCT-116 it was 28.4 µM.
For `Cc1ccc(NC(=O)/C(C#N)=c2\s/c(=C\c3ccccc3)c(=O)n2-c2ccccc2)cc1`, the IC50 with MCF7 was determined as 55.5 µM; in the assay with HepG2, 38.2 µM; with HCT-116, 11 µM.
With `Cc1ccc(NC(=O)/C(C#N)=c2\s/c(=C\c3ccccc3O)c(=O)n2-c2ccccc2)cc1`, the values for the IC50 with MCF7, with HepG2 and in the assay with HCT-116 were above 110 µM, 8.25 µM and 6.92 µM, respectively.
As to `COc1ccc(N/N=C2\S/C(=C(/C#N)C(=O)Nc3ccccc3)N(c3ccccc3)C2=O)cc1`, the figures for the IC50 in the assay on MCF7 and in the assay with HCT-116 were 17.6 µM and 46.4 µM, respectively.
Consider `Cc1ccc(NC(=O)/C(C#N)=C2\S/C(=N\Nc3ccc(Cl)cc3)C(=O)N2c2ccccc2)cc1`, for which the IC50 in the assay with MCF7 was above 102 µM; in the assay on HCT-116, 14.9 µM.
As for `N#C/C(C(=O)Nc1ccc(Cl)cc1)=c1/s/c(=C\c2ccccc2O)c(=O)n1-c1ccccc1`, the IC50 amounted to 7.89 µM with MCF7, 12.4 µM in the assay with HepG2 and 6.92 µM in the assay with HCT-116.
For the compound `N#C/C(C(=O)Nc1ccc(Cl)cc1)=c1/s/c(=C\c2ccc(Cl)cc2)c(=O)n1-c1ccccc1`, the IC50 with MCF7 is above 102 µM; in the assay with HepG2 it was above 102 µM; in the assay on HCT-116, 9.15 µM.
For `COc1ccc(N/N=C2\S/C(=C(/C#N)C(=O)Nc3ccc(C)cc3)N(c3ccccc3)C2=O)cc1`, the IC50 is 34.1 µM in the assay on HepG2 and above 103 µM in the assay on HCT-116.
As to `N#C/C(C(=O)Nc1ccccc1)=c1/s/c(=C\c2ccccc2O)c(=O)n1-c1ccccc1`, the IC50 in the assay with MCF7 was 8.85 µM; in the assay on HepG2, 83 µM; with HCT-116, 7.8 µM.
Taken in the same sequence, the figures for `N#C/C(C(=O)Nc1ccccc1)=c1/s/c(=C\c2ccccc2)c(=O)n1-c1ccccc1` were 75.3 µM, 11 µM and 33.3 µM.
Turning to `N#C/C(C(=O)Nc1ccccc1)=C1/S/C(=N\Nc2ccccc2)C(=O)N1c1ccccc1`, the IC50 in the assay with HepG2 is 18.8 µM; in the assay with HCT-116, above 114 µM.
The matching figures for `COc1cccc2c1C(=O)c1c(O)c3c(c(O)c1C2=O)C[C@@](O)(C(=O)CO)C[C@@H]3O[C@H]1C[C@H](N)[C@H](O)[C@H](C)O1` [DOXORUBICIN]: 7.36 µM and 6.86 µM.
Take `N#C/C(C(=O)Nc1ccc(Cl)cc1)=c1/s/c(=C\c2ccccc2)c(=O)n1-c1ccccc1`: the IC50 with MCF7 was determined as 77.5 µM; in the assay on HepG2 it was 49.1 µM; in the assay with HCT-116 it was 38.9 µM.
For the compound `Cc1ccc(NC(=O)/C(C#N)=C2\S/C(=N\Nc3ccccc3)C(=O)N2c2ccccc2)cc1`, the half-maximal inhibitory concentration (IC50) with HepG2 is 24.2 µM; in the assay on HCT-116, above 110 µM.
